The test system of one assay is Vero. Kind of assay: host cell cytotoxicity of antiviral hits, dose response, cytotoxicity control for West Nile virus antiviral project, secondary assay (AID 1650). The format is functional, Chlorocebus sabaeus. Particulars: Chlorocebus sabaeus, Vero.
Assay [1] addresses Induced myeloid leukemia cell differentiation protein Mcl-1 (Homo sapiens, UniProt Q07820). It counts as functional.
The nature of assay [2]: growth suppression of beta-catenin-knockout colon cells, dose response, cell-based, HCT116, human colon tumor (AID 1045).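 Also: HCT116 colon tumor cells with beta catenin knocked out; cells exposed to compound for 60 hours.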 It counts as functional.
Assay [3] in a line: growth suppression of PTEN-null colon cells, dose response, cell-based, HCT116 PTEN knockout (AID 1047).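 Also: HCT116 colon tumor cells with PTEN knocked out; cells exposed to compound for 60 hours before readout; potency for loss of cell viability measured by luminescence.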 The format is functional.
The next assay has as its target Nonstructural protein 1 (Influenza A virus, UniProt Q194T2). It counts as functional, Influenza A virus (A/California/07/2009(H1N1)).
The target of a further assay is Kallikrein-7 (Homo sapiens, UniProt P49862). The experiment in a line: Fluorescence Intensity-based biochemical primary high throughput dose response assay to identify activators of kallikrein-7 (K7) zymogen.
Kallikrein-7, sequence (P49862 whole entry): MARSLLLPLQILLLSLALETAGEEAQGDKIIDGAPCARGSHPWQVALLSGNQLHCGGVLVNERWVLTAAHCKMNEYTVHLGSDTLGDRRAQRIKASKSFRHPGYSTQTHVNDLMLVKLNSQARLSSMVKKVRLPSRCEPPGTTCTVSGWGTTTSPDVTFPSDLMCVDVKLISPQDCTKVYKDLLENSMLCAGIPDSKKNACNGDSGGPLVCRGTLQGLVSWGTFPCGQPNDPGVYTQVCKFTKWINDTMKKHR
Assay [4] addresses T1, Voltage-gated N-type calcium channel alpha-1B subunit/Amyloid beta A4 precursor protein-binding family A member 1 (Homo sapiens, UniProt Q00975+Q02410). The format is protein assay.
For assay [5], the target named is T1, Voltage-gated N-type calcium channel alpha-1B subunit/Amyloid beta A4 precursor protein-binding family A member 1. It counts as protein assay. This is another data set of the same source.
Assay [6] is described as follows: cells. It counts as functional, cell-based.
For assay [7], the target named is T2, Trace amine-associated receptor 1 (Homo sapiens, UniProt Q96RJ0).
T2 sequence (Q96RJ0 whole entry): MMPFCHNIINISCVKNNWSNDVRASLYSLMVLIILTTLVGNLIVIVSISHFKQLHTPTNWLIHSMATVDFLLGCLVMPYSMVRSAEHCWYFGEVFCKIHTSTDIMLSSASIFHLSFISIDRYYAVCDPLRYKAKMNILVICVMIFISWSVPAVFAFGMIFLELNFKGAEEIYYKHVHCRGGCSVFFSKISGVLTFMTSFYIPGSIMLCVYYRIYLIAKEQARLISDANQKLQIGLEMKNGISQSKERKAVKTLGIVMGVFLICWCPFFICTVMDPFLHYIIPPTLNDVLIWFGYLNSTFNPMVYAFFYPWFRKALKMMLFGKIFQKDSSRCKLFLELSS
Kind of assay: Counterscreen for agonists of the human trace amine associated receptor 1 (hTAAR1): Fluorescence-based cell-based high throughput dose response assay to identify hTAAR1 agonist that also desensitize TAAR1 receptor response. It counts as functional. (In general: Counterscreens check selectivity or assay interference.)

A short description of assay [8]: cells. The format is functional, cell-based. This is another data set of the same source.
Assay [9] addresses T2, Trace amine-associated receptor 1. The experiment in a line: Fluorescence-based cell-based high throughput dose response assay to identify agonists of the human trace amine associated receptor 1 (TAAR1). It counts as functional.
The target of assay [10] is T3, Corticotropin-releasing factor receptor 2/Corticotropin-releasing factor-binding protein (Homo sapiens, UniProt P24387+Q13324).
T3 sequence (Q13324 whole entry): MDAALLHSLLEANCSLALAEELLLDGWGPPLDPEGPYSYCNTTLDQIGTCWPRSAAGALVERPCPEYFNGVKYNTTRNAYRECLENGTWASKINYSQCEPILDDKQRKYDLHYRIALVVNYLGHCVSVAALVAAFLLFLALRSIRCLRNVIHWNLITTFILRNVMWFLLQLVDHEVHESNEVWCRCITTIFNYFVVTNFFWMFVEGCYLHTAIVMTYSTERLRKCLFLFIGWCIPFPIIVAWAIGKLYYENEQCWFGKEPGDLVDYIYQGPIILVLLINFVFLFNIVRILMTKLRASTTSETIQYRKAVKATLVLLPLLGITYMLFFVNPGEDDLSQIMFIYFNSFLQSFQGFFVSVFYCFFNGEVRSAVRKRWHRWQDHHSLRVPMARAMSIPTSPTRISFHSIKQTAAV
T3 sequence (P24387 whole entry): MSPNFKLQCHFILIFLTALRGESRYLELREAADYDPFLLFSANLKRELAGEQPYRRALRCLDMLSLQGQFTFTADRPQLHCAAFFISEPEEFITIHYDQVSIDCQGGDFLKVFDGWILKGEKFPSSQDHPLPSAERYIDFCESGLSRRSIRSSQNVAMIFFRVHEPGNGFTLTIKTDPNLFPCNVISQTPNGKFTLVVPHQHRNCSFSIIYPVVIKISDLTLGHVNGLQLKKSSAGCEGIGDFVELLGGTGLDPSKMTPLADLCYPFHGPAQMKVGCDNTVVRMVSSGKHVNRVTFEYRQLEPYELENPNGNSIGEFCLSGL
Kind of assay: activators of CRF receptor 2 with binding protein – uHTS hits, confirmation (AID 602473). The format is functional. Particulars: read-out: EC50_Mean.

Assay [11] concerns the target T3, Corticotropin-releasing factor receptor 2/Corticotropin-releasing factor-binding protein. Kind of assay: Dose Response confirmation of uHTS hits for small molecule antagonists of the CRF-binding protein and CRF-R2 receptor complex. Particulars: read-out: IC50_Mean. It counts as functional.
Assay [12] deals with Heat shock protein HSP 90-alpha (Homo sapiens, UniProt P07900). It counts as functional, organism-based.
Assay [13] can be described thus: non-specific cell cytotoxicity, dose response, cytotoxicity control for PAX8 inhibitor project, plate reader, dry powder samples (AID 743021). It counts as functional, cell-based.
Assay [14] can be described thus: cytotoxicity in OVCAR8 ovarian cancer cells, dose response, PAX8 project, cell-based, plate reader, dry powder samples (AID 743197). It counts as functional. The following applies: OVCAR-8.
In the next assay the target is Paired box protein Pax-8 (Homo sapiens, UniProt Q06710). The experiment in a line: inhibitors of PAX8-driven TPO luciferase reporter, dose response, RMG-I cells, cherry-pick (AID 687027).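 Also: luciferase reporter driven by Pax8 target thyroperoxidase promoter measured by SteadyGlo luminescence.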 The format is functional, cell-based. Background: Reporter assays use an easily measured gene product as a stand-in for the process of interest.
Paired box protein Pax-8, sequence (Q06710 whole entry): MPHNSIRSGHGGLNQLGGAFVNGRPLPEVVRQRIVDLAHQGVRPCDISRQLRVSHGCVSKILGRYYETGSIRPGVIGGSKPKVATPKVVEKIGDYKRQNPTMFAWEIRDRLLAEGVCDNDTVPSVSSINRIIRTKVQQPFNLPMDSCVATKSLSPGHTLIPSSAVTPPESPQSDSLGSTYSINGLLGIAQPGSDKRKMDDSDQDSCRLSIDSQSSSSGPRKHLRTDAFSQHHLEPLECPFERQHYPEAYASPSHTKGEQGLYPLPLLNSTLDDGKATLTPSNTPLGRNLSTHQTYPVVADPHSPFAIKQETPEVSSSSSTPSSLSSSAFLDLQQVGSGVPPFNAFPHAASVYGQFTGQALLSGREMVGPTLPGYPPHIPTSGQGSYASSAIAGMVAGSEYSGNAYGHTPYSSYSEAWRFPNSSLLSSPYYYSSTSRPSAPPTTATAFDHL
Assay [15] is described as follows: NIH:OVCAR-3 ovarian cancer cell cytotoxicity, dose response, PAX8 inhibitor project, plate reader, dry powder samples (AID 743044). It counts as functional, cell-based.
Assay [16] addresses T4, Histone-lysine N-methyltransferase NSD2 (Homo sapiens, UniProt O96028).
T4 sequence (O96028 whole entry): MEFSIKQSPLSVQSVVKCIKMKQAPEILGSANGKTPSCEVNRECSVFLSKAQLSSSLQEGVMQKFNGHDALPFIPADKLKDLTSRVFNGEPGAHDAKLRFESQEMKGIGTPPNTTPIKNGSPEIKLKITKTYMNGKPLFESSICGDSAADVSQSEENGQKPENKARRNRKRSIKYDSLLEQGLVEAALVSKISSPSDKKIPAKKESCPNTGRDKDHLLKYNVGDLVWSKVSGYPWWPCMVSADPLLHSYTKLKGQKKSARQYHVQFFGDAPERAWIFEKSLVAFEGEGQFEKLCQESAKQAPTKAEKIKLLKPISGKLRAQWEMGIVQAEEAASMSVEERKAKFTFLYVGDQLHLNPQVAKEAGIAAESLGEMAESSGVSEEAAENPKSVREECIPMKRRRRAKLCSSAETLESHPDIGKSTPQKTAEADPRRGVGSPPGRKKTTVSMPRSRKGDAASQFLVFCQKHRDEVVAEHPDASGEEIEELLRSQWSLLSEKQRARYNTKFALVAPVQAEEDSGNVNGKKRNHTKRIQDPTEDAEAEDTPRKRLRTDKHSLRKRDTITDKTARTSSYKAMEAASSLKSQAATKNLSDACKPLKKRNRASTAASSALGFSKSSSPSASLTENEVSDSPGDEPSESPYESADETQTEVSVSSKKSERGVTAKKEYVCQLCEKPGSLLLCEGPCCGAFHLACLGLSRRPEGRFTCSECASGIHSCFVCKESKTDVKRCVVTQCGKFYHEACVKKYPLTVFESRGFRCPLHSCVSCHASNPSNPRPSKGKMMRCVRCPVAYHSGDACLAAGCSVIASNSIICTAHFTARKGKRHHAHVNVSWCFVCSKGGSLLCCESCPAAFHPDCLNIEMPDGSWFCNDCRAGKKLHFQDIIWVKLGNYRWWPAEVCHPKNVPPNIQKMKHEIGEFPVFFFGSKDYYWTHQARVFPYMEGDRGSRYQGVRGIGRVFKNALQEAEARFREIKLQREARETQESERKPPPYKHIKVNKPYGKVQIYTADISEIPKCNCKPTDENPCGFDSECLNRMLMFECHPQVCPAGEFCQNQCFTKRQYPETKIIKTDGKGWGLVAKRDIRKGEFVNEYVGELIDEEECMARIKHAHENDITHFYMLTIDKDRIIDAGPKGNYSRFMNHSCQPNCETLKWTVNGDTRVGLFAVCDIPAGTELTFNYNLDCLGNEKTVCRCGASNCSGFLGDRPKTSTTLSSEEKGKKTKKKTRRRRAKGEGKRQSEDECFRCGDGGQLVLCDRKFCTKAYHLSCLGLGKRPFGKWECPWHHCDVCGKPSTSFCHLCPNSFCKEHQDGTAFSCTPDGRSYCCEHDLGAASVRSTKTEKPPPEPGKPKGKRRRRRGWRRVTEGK
It counts as biochemical.

Another assay addresses Large T antigen (Simian virus 40, UniProt P03070). The format is functional, Betapolyomavirus macacae.

The structures appear in SMILES notation. Active and inactive are the calls of the source. Bounds are passed on as bounds.

T1 sequence (Q00975 whole entry): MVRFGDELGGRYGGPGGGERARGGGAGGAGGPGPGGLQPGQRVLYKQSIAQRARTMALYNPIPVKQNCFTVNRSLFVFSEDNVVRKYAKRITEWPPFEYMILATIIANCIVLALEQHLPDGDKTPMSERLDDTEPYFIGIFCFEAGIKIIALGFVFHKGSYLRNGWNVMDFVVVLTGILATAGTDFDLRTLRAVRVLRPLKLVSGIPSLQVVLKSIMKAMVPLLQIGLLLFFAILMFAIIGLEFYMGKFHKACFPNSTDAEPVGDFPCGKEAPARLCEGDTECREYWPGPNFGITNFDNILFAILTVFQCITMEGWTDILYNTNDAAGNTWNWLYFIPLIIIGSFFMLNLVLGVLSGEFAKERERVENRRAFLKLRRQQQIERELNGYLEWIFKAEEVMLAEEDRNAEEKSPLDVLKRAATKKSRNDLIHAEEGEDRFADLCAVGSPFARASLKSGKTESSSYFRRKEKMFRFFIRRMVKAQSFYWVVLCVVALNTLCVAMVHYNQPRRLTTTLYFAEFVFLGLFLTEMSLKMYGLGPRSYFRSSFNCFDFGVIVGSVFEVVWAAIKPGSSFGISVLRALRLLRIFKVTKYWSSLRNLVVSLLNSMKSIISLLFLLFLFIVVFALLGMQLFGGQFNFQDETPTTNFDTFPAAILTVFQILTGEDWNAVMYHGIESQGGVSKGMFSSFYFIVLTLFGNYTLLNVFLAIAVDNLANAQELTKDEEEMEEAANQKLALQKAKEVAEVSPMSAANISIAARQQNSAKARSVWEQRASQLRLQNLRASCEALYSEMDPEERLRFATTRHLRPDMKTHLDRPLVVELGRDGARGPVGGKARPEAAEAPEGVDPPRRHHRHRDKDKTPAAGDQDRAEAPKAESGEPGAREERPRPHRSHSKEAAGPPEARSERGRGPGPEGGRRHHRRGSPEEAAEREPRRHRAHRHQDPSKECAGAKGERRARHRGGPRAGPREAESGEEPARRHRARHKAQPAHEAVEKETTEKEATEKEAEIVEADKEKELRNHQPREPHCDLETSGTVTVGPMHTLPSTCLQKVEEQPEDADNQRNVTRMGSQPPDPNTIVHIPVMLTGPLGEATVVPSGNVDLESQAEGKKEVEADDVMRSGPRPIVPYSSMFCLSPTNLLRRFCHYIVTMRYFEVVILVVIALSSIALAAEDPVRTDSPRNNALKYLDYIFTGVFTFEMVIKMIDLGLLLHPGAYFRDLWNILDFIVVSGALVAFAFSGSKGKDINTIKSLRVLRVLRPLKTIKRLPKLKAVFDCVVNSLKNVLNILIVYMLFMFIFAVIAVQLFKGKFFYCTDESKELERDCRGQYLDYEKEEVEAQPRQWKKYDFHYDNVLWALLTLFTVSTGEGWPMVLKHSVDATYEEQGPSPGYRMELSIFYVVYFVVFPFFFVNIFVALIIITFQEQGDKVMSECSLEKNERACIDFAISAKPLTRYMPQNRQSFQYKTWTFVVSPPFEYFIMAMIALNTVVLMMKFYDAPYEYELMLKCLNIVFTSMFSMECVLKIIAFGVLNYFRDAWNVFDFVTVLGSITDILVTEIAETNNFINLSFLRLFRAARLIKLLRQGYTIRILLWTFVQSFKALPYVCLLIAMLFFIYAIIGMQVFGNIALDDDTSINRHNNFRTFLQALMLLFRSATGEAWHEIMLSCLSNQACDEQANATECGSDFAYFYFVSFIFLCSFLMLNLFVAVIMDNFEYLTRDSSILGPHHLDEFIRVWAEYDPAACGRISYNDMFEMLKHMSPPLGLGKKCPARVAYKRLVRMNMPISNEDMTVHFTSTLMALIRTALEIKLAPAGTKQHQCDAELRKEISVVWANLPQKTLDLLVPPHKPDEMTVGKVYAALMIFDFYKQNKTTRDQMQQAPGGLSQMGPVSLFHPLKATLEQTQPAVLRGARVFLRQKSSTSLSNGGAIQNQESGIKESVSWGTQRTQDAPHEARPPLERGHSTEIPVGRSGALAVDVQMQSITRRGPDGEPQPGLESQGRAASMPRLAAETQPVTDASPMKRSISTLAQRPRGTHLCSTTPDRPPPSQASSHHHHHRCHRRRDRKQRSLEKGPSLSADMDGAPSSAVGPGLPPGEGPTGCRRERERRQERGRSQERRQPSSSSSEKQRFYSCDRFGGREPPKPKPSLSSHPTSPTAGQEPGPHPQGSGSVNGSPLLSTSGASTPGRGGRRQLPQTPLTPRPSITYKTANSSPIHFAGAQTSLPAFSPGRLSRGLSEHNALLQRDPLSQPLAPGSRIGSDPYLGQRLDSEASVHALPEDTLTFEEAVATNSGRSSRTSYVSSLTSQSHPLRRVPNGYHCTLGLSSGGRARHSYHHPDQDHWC
T1 sequence (Q02410 whole entry): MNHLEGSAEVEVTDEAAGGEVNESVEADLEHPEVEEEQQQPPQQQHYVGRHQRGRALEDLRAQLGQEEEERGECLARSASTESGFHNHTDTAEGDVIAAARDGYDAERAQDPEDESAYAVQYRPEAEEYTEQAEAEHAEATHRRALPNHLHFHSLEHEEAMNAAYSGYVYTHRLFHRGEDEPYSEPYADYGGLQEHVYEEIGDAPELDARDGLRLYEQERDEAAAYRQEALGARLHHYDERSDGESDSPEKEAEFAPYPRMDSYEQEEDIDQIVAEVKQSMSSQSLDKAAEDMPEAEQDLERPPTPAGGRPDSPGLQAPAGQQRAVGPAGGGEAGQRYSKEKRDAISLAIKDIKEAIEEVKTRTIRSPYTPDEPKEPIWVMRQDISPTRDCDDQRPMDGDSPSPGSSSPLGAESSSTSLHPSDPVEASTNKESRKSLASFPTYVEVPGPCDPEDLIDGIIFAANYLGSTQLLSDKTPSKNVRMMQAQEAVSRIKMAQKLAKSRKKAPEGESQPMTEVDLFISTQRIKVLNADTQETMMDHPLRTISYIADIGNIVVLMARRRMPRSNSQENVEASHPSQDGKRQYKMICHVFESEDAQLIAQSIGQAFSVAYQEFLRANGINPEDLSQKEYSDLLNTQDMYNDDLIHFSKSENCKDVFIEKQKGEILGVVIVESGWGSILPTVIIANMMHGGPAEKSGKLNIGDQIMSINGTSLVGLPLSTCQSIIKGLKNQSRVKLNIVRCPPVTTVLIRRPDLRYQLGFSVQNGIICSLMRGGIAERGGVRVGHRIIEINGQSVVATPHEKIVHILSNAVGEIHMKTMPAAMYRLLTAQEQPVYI
Nonstructural protein 1, sequence (Q194T2 whole entry): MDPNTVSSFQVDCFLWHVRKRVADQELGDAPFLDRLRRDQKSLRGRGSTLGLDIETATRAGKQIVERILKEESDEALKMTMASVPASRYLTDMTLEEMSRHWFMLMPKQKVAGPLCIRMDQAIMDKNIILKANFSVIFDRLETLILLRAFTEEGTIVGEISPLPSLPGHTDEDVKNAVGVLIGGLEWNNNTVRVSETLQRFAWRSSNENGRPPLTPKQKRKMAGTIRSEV
Induced myeloid leukemia cell differentiation protein Mcl-1, sequence (Q07820 whole entry): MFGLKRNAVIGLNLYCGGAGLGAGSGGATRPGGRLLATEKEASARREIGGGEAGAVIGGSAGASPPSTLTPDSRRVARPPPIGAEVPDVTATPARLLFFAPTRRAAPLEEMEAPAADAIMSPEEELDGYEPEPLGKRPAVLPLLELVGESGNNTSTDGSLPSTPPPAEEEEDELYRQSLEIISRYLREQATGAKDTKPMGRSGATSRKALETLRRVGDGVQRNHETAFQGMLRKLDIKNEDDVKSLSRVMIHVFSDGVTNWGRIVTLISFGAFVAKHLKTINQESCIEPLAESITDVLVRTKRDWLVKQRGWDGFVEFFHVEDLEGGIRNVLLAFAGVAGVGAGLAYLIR

What is called CC50 is the concentration giving 50% cytotoxicity. On to `Cn1c(=O)[nH]c(=O)c2c1nc(N1CCCCC1)n2CCCSc1nc2ccccc2s1`, for which the CC50 with Vero was > 100 µM (active).
On to `CCN=c1ccc(Br)cc(C(=O)/C=C/c2c(Cl)cccc2Cl)c1O`, for which, in the assay with Vero, the half-maximal cytotoxic concentration (CC50) was > 100 µM (active). Besides, the IC50 in assay [1] was 2.32 µM (active). Further, the EC50 is 1.67 µM (active) in assay [2] and 1.92 µM (active) in assay [3].
With `COc1ccc(NC(=O)CSc2nn3c(=O)c(C)nnc3s2)cc1`, the IC50 at Nonstructural protein 1 was 8.25 µM (active).
Take `Cc1cc(NCCCCO)n2c(nc3ccccc32)c1C#N`: the EC50 on Kallikrein-7 is > 69.5 µM (inactive).
On to `CCn1ccnc1CNCc1cn(-c2cc(C)ccc2C)nc1-c1ccccc1`, for which, at Nonstructural protein 1, the IC50 is 11.8 µM (active).
Regarding `CC1=C(C(=O)O)N2C(=O)C(NC(=O)c3ccccc3Cl)C2SC1` (centres undefined), the IC50 in [4] is > 50 µM (inactive); in assay [5], 0.749 µM (active).
Turning to `CNCCc1ccccn1`, the figures for the IC50 (in the assay “cells [6]”; in [7]) were > 29.9 µM (inactive) and 6.02 µM (active), respectively. The results for the EC50 (in the assay “cells [8]”; in assay [9]) were > 29.9 µM (inactive) and 1.24 µM (active), respectively.
Turning to `CN1C(=O)NC(c2ccccc2)C2=C1CN(CCc1ccccc1)C2=O` (centres undefined), the EC50 in assay [10] was > 53 µM (inactive); in “cells [8]”, > 29.9 µM (inactive); in assay [9], 1.03 µM (active). Further, the IC50 in “cells [6]” is > 29.9 µM (inactive); in assay [7], 5.74 µM (active); in assay [11] it was > 47.1 µM (inactive).
A word on the AC50: it is the midpoint of the concentration-response curve, whichever way the signal moves. As for `CCOC(=O)c1ccc(N2C(=O)C=CC2=O)cc1`, the IC50 in [4] is 2.46 µM (active); in assay [5] it was 6.05 µM (active). Also, the AC50 in assay [12] was 0.691 µM (active).
As for `Cc1cc(C(=O)CN2C(=O)C(=O)N(C3CCCC3)C2=O)c(C)n1CCc1ccccc1`, the IC50 in “cells [6]” is > 29.9 µM (inactive); in [7], 3.28 µM (active). For the same compound, the EC50 in “cells [8]” was > 29.9 µM (inactive); in assay [9] it was 1.89 µM (active).
For the compound `Cc1nc2sc(C(=O)OC(C)C)c(N)c2c(C)c1C`, the IC50 in assay [4] is > 50 µM (inactive); in [5], 4.25 µM (active).
As for `CN(C)c1cccc2c(S(=O)(=O)NC(=O)[C@H]3O[C@@H](n4cnc5c(N)ncnc54)[C@H](O)[C@@H]3O)cccc12`, on Kallikrein-7, the EC50 was 8.16 µM (active).
Consider `COc1cccc(Nc2nc(C(N)COCc3ccccc3)cs2)n1` (centres undefined), for which the results for the IC50 (in “cells [6]”; in [7]) were 21.9 µM (inactive) and 8.79 µM (active), respectively. The EC50 in the assay “cells [8]” was 22.2 µM (inactive); in assay [9] it was 2.55 µM (active).
Turning to `COc1ccc(CN(C)C[C@@H]2OCCCC[C@H](C)Oc3ccc(NS(=O)(=O)c4ccc(C)cc4)cc3C(=O)N([C@H](C)CO)C[C@H]2C)cc1`, the AC50 was 64.6 µM (active) in [13], 44.6 µM (active) in [14] and 16.8 µM (active) on Paired box protein Pax-8.
On to `C[C@@H]1CCCCO[C@H](CN(C)Cc2ccccc2)[C@@H](C)CN([C@@H](C)CO)C(=O)c2cc(NC(=O)Nc3ccc(C(F)(F)F)cc3)ccc2O1`, for which the AC50 in [14] was 33.6 µM (active); at Paired box protein Pax-8, 19 µM (active); in assay [15], 44.5 µM (active).
For the compound `C[C@@H]1CN([C@H](C)CO)S(=O)(=O)c2ccc(C#Cc3ccncc3)cc2O[C@H]1CN(C)C(=O)C1CCCCC1`, the AC50 is 3.13 µM (active) on Paired box protein Pax-8 and 17.1 µM (active) in assay [15].
Take `CC(C)Nc1nc(-c2ccccc2CO)c2sccc2n1`: on Kallikrein-7, the EC50 was > 69.6 µM (inactive).
`O=c1c2ccccc2nc(COc2ccccc2)n1/N=C/c1ccc(O)c(O)c1`: the AC50 in assay [16] is 8.78 µM (active). On Large T antigen, the IC50 is 11.7 µM (active).
On to `c1ccc(CCNc2ncnc3[nH]cnc23)cc1`, for which the IC50 is > 29.9 µM (inactive) in the assay “cells [6]” and 8.92 µM (active) in assay [7]. Also, the EC50 in “cells [8]” was > 29.9 µM (inactive); in assay [9], 3.94 µM (active).

The record behind these values is ChEMBL document CHEMBL1201862, “PubChem BioAssay data set” (2004).
